This is an account of results in PubChem BioAssay (NCI).

Holding throughout (test): growth of human tumour cells (NCI), 48 h
The test system of assay [1] is 786-0 renal.
For assay [2], the system named is DU-145 prostate.
The subject of assay [3] is EKVX NSCLC.
Assay [4] has as its system HOP-92 NSCLC.
Assay [5] relates to IGROV1 ovarian.
Assay [6] has as its system K-562 leukemia.
Assay [7] concerns LOX IMVI melanoma.
In assay [8] the test system is NCI-H460 lung.
Assay [9] has as its system SK-OV-3 ovarian.
The subject of assay [10] is SN12C renal.

Where “and” joins values, the source holds several entries; their conditions need not be identical. Equal values may be shown once.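 Growth conditions: 96-well plates. Treatment: test compound, 48 hours, 5 concentrations. Analysis: linear interpolation between bracketing concentrations; unreached endpoints set to highest concentration. Abbreviation: GI50, concentration required for 50% inhibition of growth. TGI is the concentration that stops growth completely.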

In the case of `O=C(NP(=O)(N1CC1)N1CC1)c1cc(I)ccc1I`, the TGI in assay [1], in assay [2], in [3], in [4], in assay [5] and in [6] was greater than 100 µM in each case. In addition, the TGI in assay [7] is 54.8 µM; in assay [8], greater than 79 µM; in assay [9], 89.9 µM; in assay [10] it was greater than 100 µM.

Turning to `COc1cc(C2=C(C#Cc3ccccc3)COC2=O)cc(OC)c1OC`, the GI50 in assay [1] is less than 0.0224 µM; in [2] it was 0.293 µM; in assay [3], 18.2 µM; in assay [4] it was 2.77 µM; in assay [6], 0.629 µM; in assay [7], 0.738 µM. Besides, the results for the GI50 in [8], in [9] and in assay [10] were 3.3 µM, 20.4 µM and 0.261 µM, respectively. The TGI in assay [2] was 18 µM; in [3], 38.1 µM; in assay [4], 10.6 µM; in [5] it was greater than 100 µM; in assay [6], greater than 100 µM; in assay [7] it was 3.92 µM. The TGI in assay [8] was greater than 100 µM; in assay [9], greater than 100 µM; in assay [10], 1.38 µM.

In the case of `Nc1nc(-c2ccccc2)nc(N)c1N=O`, the GI50 in [1] is 13.2 µM; in assay [2] it was 9.5 µM; in assay [3], 20.1 µM; in [4] it was 5.32 µM; in assay [5] it was 11.8 µM; in assay [6], 5.09 µM. In addition, the GI50 is 3.14 µM in [7], 8.02 µM in assay [8], 11.9 µM in assay [9] and 4.51 µM in assay [10]. For the same compound, the TGI in assay [1] is 27.1 µM; in assay [2], 21.6 µM; in [3] it was greater than 100 µM; in [4] it was 23.5 µM; in assay [5], 54 µM; in assay [6] it was 72.3 µM. The TGI in assay [7] turned out to be 13 µM; in [8], 27.9 µM; in assay [9], 26 µM; in [10] it was 18.1 µM.

For the compound `CC1(C)[C@@H](O[C@@H]2OC[C@@H](O[C@@H]3O[C@H](CO)[C@@H](O)[C@H](O)[C@H]3O[C@@H]3OC[C@@H](O)[C@H](O)[C@H]3O)[C@H](O)[C@H]2O[C@@H]2O[C@H](CO)[C@@H](O)[C@H](O)[C@H]2O)CC[C@]2(C)[C@H]3CC[C@]45OC[C@@]6(CC[C@](C)(C=O)C[C@H]64)[C@H](O)C[C@@]5(C)[C@]3(C)CC[C@@H]12`, the GI50 in [1] is 2.84 µM; in assay [2], 1.09 µM; in [3], 0.945 µM; in assay [4], 0.704 µM; in assay [5], 0.872 µM; in assay [6] it was 1.81 µM. Also, the GI50 in assay [7] was 0.924 µM; in assay [8] it was 1.17 µM; in assay [9], 0.922 µM; in assay [10], 0.847 µM. Moreover, the TGI in assay [1] came out at 5.77 µM; in assay [2] it was 2.33 µM; in assay [3], 1.96 µM; in assay [4], 1.54 µM; in assay [5], 1.84 µM; in assay [6], 5.51 µM. For the same compound, the TGI was found to be 1.95 µM in [7], 3.26 µM in [8], 1.67 µM in assay [9] and 1.79 µM in [10].

Turning to `N#Cc1c(N)nc(N2CCOCC2)c(C#N)c1-c1cccnc1`, the GI50 in [1] is greater than 100 µM; in assay [2], greater than 100 µM; in assay [3], 83.8 µM; in assay [4], 24.8 µM; in assay [5], 17.2 µM; in assay [6], 71.7 µM. Besides, the GI50 is 63.1 µM in assay [7], greater than 100 µM in [8], 47.8 µM in assay [9] and 97.2 µM in assay [10]. In addition, the TGI in assay [1] is greater than 100 µM; in [2], greater than 100 µM; in assay [3], greater than 100 µM; in assay [4], greater than 100 µM; in assay [5], 44.8 µM; in assay [6], greater than 100 µM. The TGI in [7] was greater than 100 µM; in [8], greater than 100 µM; in assay [9], 99.6 µM; in assay [10], greater than 100 µM.

As to `N#CSCC1CC(O)(c2ccccc2)CC(c2ccc(F)cc2)O1` (stereo unspecified), the GI50 in assay [1] is 1.61 µM; in [2], 1.56 µM; in assay [3], 1.94 µM; in [4], 1.93 µM; in assay [5], 3.19 µM; in [6] it was 2.14 µM. The GI50 in assay [7] is 1.7 µM; in assay [8], 2.08 µM; in assay [9] it was 4.67 µM; in assay [10], 1.8 µM. The TGI was 3.27 µM in [1]; 3.45 µM in assay [2]; 5.43 µM in assay [3]; 6.05 µM in [4]; 12 µM in assay [5]; 7.31 µM in assay [6]. Besides, the TGI in assay [7] is 3.1 µM; in assay [8], 4.34 µM; in [9] it was 15.7 µM; in assay [10], 3.47 µM.

For `NC(=O)c1cc(-c2ccc(F)cc2)cc(-c2ccncc2)c1N`, the GI50 is greater than 25 µM in assay [1]; greater than 25 µM in assay [2]; greater than 25 µM in assay [3]; 23 µM in assay [4]; greater than 25 µM in assay [5]; greater than 25 µM in assay [6]. The GI50 in [7], in assay [8], in assay [9] and in [10] was greater than 25 µM each time. Also, the TGI in assay [1], in assay [2], in assay [3], in [4], in [5] and in assay [6] was greater than 25 µM throughout. In addition, the TGI in [7], in assay [8], in assay [9] and in assay [10] was greater than 25 µM each time.

For `CC(=Nc1ccccc1)C1=C(O)C(Cc2ccccc2)NC1=O` (stereo unspecified), the GI50 in assay [1] was 0.0586 µM; in assay [2], 0.133 µM; in [3] it was 0.0798 µM; in assay [4], 0.0515 µM; in assay [5], 0.0651 µM; in [6], 0.0203 µM. Moreover, the GI50 is 0.0574 µM in assay [7], 0.0375 µM in assay [8], 0.0537 µM in assay [9] and 0.227 µM in assay [10]. Further, the TGI in assay [2] was 1.29 µM; in [3], greater than 100 µM; in assay [4], greater than 100 µM; in [5], greater than 100 µM; in assay [6], greater than 100 µM; in assay [7], greater than 34 µM. Also, the TGI in [8] was 1.26 µM; in [9], greater than 61.8 µM; in assay [10], greater than 100 µM.

For `CC(=O)O[C@]1(C(C)=O)CC[C@H]2[C@@H]3C=C(C)C4=CC(=O)CC[C@]4(C)[C@H]3CC[C@@]21C`, the GI50 in [1] is greater than 80.7 µM; in [2], greater than 100 µM; in [3], 21 µM; in [4], 14.8 µM; in [5], greater than 100 µM; in [6], 20.7 µM. Further, the GI50 in assay [7] is greater than 100 µM; in assay [8], 98.5 µM; in assay [9], greater than 91.9 µM; in assay [10] it was greater than 100 µM. Besides, the TGI in assay [1], in assay [2], in assay [3], in assay [4], in [5] and in assay [6] was greater than 100 µM in each case. Moreover, the TGI in assay [7], in assay [8], in [9] and in assay [10] was greater than 100 µM throughout.

Regarding `COc1cc(OC)c(/C=C/c2cnc3ccccc3n2)c(OC)c1`, the TGI in [1], in assay [2], in assay [3], in assay [4], in assay [5] and in assay [6] was greater than 10 µM throughout. Moreover, the TGI in assay [7], in assay [8], in [9] and in assay [10] was greater than 10 µM each time.

`CCCCCCCCCCCC1CCCC(C)N1` (stereo unspecified): the GI50 in [1] is 13.7 µM; in [2] it was 12.5 µM; in assay [3], 12.2 µM; in assay [4], 6.67 µM; in assay [5], 6.13 µM; in assay [6] it was 1.96 µM. Also, the GI50 in [7] was 3.62 µM; in [8], 3.67 µM; in [9] it was 14.5 µM; in assay [10], 6.3 µM. The TGI in [1] is 42.9 µM; in assay [2], 26.1 µM; in assay [3] it was 26.3 µM and 119 µM; in assay [4], 31.8 µM and 90.2 µM; in assay [5], 19.2 µM and 142 µM; in [7], 16.1 µM and > 70.7 µM. Also, the TGI was 12.5 µM and 118 µM in [8]; 28.5 µM and 158 µM in assay [9]; 23.9 µM and 131 µM in assay [10].

For `COc1ccc(-c2nc3ccccn3c2/C=C/C(=O)c2cc(OC)c(OC)c(OC)c2)cc1`, the GI50 was 3.9 µM in [1]; 7.21 µM in assay [2]; 7.42 µM in [3]; 2.36 µM in assay [4]; 8.86 µM in assay [5]; 13.1 µM in assay [6]. Moreover, the GI50 in assay [7] is 6.05 µM; in assay [8] it was 4.09 µM; in assay [9], 14.8 µM; in assay [10] it was 11.4 µM. In addition, the TGI was greater than 100 µM in assay [1]; 41.1 µM in assay [2]; greater than 100 µM in [3]; 51.4 µM in assay [4]; greater than 100 µM in assay [5]; greater than 100 µM in [6]. Further, the TGI is greater than 100 µM in [7], 31 µM in [8], greater than 100 µM in [9] and greater than 100 µM in [10].

In the case of `COc1ccc2c(c1)n([O-])c1ccccc1[n+]2=O`, the GI50 is 43 µM and 21.4 µM in [1]; 29.3 µM and 12.2 µM in [2]; 42.6 µM and 15.6 µM in [6]; 29.5 µM and 7.2 µM in assay [7]; 16.8 µM and 5.54 µM in assay [8]. Further, the TGI in assay [1] is greater than 100 µM; in assay [2], greater than 100 µM; in assay [3], > 100 µM and 55.1 µM; in [4], greater than 100 µM; in [5], 19.1 µM; in [6], greater than 100 µM. Besides, the TGI in assay [7] is > 100 µM and 31.6 µM; in assay [8], > 100 µM and 34.3 µM; in [9], 94.8 µM; in assay [10], greater than 100 µM.

Turning to `COc1cc2c(cc1Nc1nc(Nc3ccsc3C(N)=O)c3cc[nH]c3n1)N(C(=O)CN(C)C)CCC2(C)C`, the GI50 is 3.06 µM in assay [1]; 2.88 µM in [2]; 0.453 µM in [3]; less than 0.0025 µM in [4]; 3.23 µM in [5]; 1.75 µM in assay [6]. The GI50 is 1.99 µM in assay [7], 0.889 µM in assay [8], 3.64 µM in [9] and 3.13 µM in assay [10]. Also, the TGI in assay [1] was 6.82 µM; in assay [2] it was 5.96 µM; in assay [3], 4.97 µM; in assay [4], 0.833 µM; in assay [5] it was 7.31 µM; in [6], 6.47 µM. Besides, the TGI in [7] stood at 6.08 µM; in [8], 5.3 µM; in [9], 6.94 µM; in [10], 7.18 µM.

For the compound `CCN(C(=O)c1cc(F)ccc1Oc1cncnc1N1CC2(CCN(CC3CCC(NS(=O)(=O)CC)CC3)CC2)C1)C(C)C` (stereo unspecified), the GI50 in [1], in assay [2], in assay [3], in assay [4], in assay [5] and in [6] was greater than 100 µM in each case. The GI50 in assay [7], in assay [8], in assay [9] and in assay [10] was greater than 100 µM each time. The TGI in assay [1], in assay [2], in [3], in [4], in assay [5] and in assay [6] was greater than 100 µM in each case. In addition, the TGI in assay [7], in assay [8], in assay [9] and in assay [10] was greater than 100 µM in each case.

In the case of `O=C1c2ccccc2C(=O)c2c1ccc(C1C(=O)c3ccccc3C1=O)c2-c1c(C2C(=O)c3ccccc3C2=O)ccc2c1C(=O)c1ccccc1C2=O`, the TGI in assay [1], in [2], in assay [3], in assay [4], in assay [5] and in assay [6] was greater than 100 µM each time. Moreover, the TGI in assay [7], in assay [8], in [9] and in [10] was greater than 100 µM throughout.
